The values below come from ChEMBL document CHEMBL1138006, “Identification of 2,3-diaryl-pyrazolo[1,5-b]pyridazines as potent and selective cyclooxygenase-2 inhibitors” (Bioorg Med Chem Lett, 2004).

Molecules are shown by their SMILES. Some results are limits rather than exact numbers.

Series [1] has as its target T1, Prostaglandin G/H synthase 2 (Rattus norvegicus) (UniProt P35355).
T1 sequence (whole entry): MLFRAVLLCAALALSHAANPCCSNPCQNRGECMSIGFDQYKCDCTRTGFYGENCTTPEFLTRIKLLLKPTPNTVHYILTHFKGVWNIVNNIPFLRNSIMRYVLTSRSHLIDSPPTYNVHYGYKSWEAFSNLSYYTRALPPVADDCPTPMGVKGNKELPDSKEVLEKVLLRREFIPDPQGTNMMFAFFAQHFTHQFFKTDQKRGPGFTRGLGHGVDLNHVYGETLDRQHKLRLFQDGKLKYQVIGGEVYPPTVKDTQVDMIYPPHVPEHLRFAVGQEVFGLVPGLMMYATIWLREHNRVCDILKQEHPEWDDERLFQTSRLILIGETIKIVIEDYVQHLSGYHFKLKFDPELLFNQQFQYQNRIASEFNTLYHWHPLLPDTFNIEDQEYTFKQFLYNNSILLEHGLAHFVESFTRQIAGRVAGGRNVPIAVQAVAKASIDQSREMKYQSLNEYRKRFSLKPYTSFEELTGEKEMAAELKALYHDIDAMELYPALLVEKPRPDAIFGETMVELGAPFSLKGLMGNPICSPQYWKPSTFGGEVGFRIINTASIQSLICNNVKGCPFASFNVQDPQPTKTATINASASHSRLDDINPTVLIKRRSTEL
Briefly: Percent reversal of FCA-induced arthritis in rats at 10 mg/kg. The series is classed as functional, organism-based. More on the design: dose 10 mg/kg.

For series [2], the target named is Prostaglandin G/H synthase 1 (Homo sapiens, UniProt P23219). The series is classed as cell-based, COS.
Sequence of Prostaglandin G/H synthase 1 (P23219 whole entry): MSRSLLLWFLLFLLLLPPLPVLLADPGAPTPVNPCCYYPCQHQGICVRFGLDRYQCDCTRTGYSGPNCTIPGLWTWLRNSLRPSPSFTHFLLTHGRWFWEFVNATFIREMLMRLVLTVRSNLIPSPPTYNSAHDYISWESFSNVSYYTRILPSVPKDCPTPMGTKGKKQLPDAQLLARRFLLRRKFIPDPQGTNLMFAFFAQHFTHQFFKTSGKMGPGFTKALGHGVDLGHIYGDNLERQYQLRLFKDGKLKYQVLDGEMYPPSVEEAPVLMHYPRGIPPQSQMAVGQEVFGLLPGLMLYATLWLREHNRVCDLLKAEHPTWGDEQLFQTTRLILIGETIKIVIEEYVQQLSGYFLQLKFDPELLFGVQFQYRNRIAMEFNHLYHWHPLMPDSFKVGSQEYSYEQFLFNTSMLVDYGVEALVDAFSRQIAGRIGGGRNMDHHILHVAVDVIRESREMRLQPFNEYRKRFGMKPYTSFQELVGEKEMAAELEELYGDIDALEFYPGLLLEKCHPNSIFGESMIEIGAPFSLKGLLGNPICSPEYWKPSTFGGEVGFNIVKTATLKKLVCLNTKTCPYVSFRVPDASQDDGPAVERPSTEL
Description: Inhibition of human cyclooxygenase-1 expressed in COS cells
The target in series [3] is T2, Prostaglandin G/H synthase 2 (Homo sapiens, UniProt P35354).
T2 sequence (P35354 whole entry): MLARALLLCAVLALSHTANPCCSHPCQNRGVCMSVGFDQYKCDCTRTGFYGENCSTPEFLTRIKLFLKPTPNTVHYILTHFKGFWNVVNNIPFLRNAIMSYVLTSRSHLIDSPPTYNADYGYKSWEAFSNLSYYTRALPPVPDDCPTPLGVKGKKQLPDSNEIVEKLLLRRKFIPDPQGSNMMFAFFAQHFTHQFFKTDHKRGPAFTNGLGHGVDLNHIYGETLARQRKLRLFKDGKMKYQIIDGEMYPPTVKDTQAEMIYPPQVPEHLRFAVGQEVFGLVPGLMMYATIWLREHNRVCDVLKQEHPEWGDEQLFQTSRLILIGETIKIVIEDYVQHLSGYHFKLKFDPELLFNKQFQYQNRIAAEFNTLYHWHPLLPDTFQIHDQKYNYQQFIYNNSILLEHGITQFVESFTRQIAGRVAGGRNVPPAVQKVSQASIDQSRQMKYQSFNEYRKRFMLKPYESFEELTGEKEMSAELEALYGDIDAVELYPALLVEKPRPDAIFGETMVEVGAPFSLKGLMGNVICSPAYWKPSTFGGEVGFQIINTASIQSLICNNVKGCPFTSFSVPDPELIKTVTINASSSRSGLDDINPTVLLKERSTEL
It is filed as cell-based, COS.
Description: Inhibition of human cyclooxygenase-2 expressed in COS cells

Series [4] in a line: Clearance after iv administration of 2 mg/kg to rat. It is filed as ADME, organism-based. Details: dose 2 mg/kg, route intravenous. The settings on record: in vivo.
Series [5] in a line: Distribution after iv administration of 2 mg/kg to rat. It is filed as ADME, organism-based. More on the design: dose 2 mg/kg, route intravenous. As to conditions: in vivo, read-out: Distribution.
The nature of series [6]: Oral bioavailability after oral administration of 5 mg/kg to rat. The settings on record: in vivo, read-out: Bioavailabiility. The series is classed as ADME, organism-based.
Series [7] can be described thus: Half life after iv administration of 2 mg/kg to rat. More on the design: dose 2 mg/kg, route intravenous. As to conditions: in vivo. It is filed as ADME, organism-based.

In general, IC50 refers to the concentration at which inhibition is half-maximal. Higher therefore signals weaker potency. For `NS(=O)(=O)c1ccc(-c2c(-c3ccc(F)cc3)nn3ncccc23)cc1`, the Reversal activity in series [1] stood at 0%. Besides, the results for the IC50 in series [2] and in series [3] were 24100 nM and below 10 nM, respectively.
On the same counts, the results for `CCOc1ccc2c(-c3ccc(S(C)(=O)=O)cc3)c(-c3ccc(F)cc3)nn2n1` are 11%, above 100000 nM and 43 nM.
Turning to `CC(C)Oc1ccc2c(-c3ccc(S(C)(=O)=O)cc3)c(-c3ccc(F)cc3)nn2n1`, the IC50 was above 100000 nM in series [2] and 57 nM in series [3].
On the same counts, the results for `CCOc1ccc(-c2nn3nc(SC)ccc3c2-c2ccc(S(N)(=O)=O)cc2)cc1` are 8630 nM and 13 nM.
With `COc1ccc2c(-c3ccc(S(C)(=O)=O)cc3)c(-c3ccc(F)cc3)nn2n1`, the Reversal activity in series [1] was found to be 10%. Also, the IC50 in series [2] was above 35100 nM; in series [3] it was 51 nM.
Turning to `Cc1ccc2c(-c3ccc(S(C)(=O)=O)cc3)c(-c3ccccc3)nn2n1`, the Reversal activity in series [1] was 1%. For the same compound, the IC50 was 43900 nM in series [2] and below 31 nM in series [3].
The like results for `CCOc1ccc(-c2nn3nc(S(C)(=O)=O)ccc3c2-c2ccc(S(N)(=O)=O)cc2)cc1` were, in that order, 0%, above 100000 nM and 264 nM.
The like results for `NS(=O)(=O)c1ccc(-c2c(-c3ccc(OC(F)(F)F)cc3)nn3ncccc23)cc1` were, in that order, 92%, above 100000 nM and 388 nM.
On the same counts, the results for `COc1ccc2c(-c3ccc(S(C)(=O)=O)cc3)c(-c3ccc(C)cc3)nn2n1` are 15%, above 100000 nM and 50 nM.
Consider `CS(=O)(=O)c1ccc(-c2c(-c3ccccc3)nn3ncccc23)cc1`, for which the IC50 in series [2] is above 100000 nM; in series [3], 2 nM.
On the same counts, the results for `CS(=O)(=O)c1ccc(-c2c(-c3ccc(F)cc3)nn3ncccc23)cc1` are above 100000 nM and 39 nM.
For `CCc1ccc2c(-c3ccc(S(C)(=O)=O)cc3)c(-c3ccc(F)cc3)nn2n1`, the Reversal activity in series [1] was found to be 40%. The IC50 was above 100000 nM in series [2] and 48 nM in series [3].
On the same counts, the results for `Cc1ccc(-c2nn3ncccc3c2-c2ccc(S(C)(=O)=O)cc2)cc1` are 23%, above 19100 nM and 17 nM.
For the compound `Cc1ccc(-c2ncc(Cl)cc2-c2ccc(S(C)(=O)=O)cc2)cn1` [ETORICOXIB], the IC50 in series [2] is above 100000 nM.
Broadly, the clearance is the rate of elimination divided by the concentration. Low values mean a low capacity for elimination, high ones a high capacity for elimination. In general, half-life refers to the time in which the quantity being followed falls by half. Low readings indicate fast loss, high ones slow loss. In series [4], `CCOc1ccc(-c2nn3ncccc3c2-c2ccc(S(C)(=O)=O)cc2)cc1` [GW-406381] yielded a clearance of 9 mL/min/kg. The same compound gave an IC50 in series [2] above 84200 nM. For the same compound, the Vd in series [5] was found to be 3 L/kg. Moreover, in series [6], the bioavailability worked out at 80%. In addition, the half-life in series [7] was 4.1 h.
In the case of `CS(=O)(=O)c1ccc(-c2c(-c3cccc(F)c3)nn3ncccc23)cc1`, the Reversal activity in series [1] was determined as 78%. The IC50 in series [2] came out at 58300 nM; in series [3] it was 34 nM.
On to `Cc1ccc2c(-c3ccc(S(C)(=O)=O)cc3)c(-c3ccc(F)cc3)nn2n1`, for which the figures for the IC50 in series [2] and in series [3] were above 100000 nM and 24 nM, respectively.
The like results for `COc1ccc2c(-c3ccc(S(N)(=O)=O)cc3)c(-c3ccc(F)cc3)nn2n1` were, in that order, 2610 nM and 26 nM.
